The text below walks through data of US20140057895A1, “INDAZOLE- AND PYRROLOPYRIDINE-DERIVATIVE AND PHARMACEUTICAL USE THEREOF” (priority 2011, published 2014).

Counter-ions that a name gives are not always drawn.

The target in one experiment is T1, human 5-HT4b receptor (Homo sapiens, UniProt Q13639).
T1 construct: expressed in transfected cells; host or cells: CHO cells (G418 selection)
The experiment is described as follows: Test Example 2: Serotonin 4 (5-HT4) receptor agonist activity assay, cAMP HTRF in CHO cells (Table 97). In kind it is cell-based. As to conditions: cAMP in CHO cells expressing human 5-HT4b receptor, mean value; for Emax: 0.25 h, intrinsic activity, maximal activity of 5-HT defined as 100%, read-out: IA (%); for EC50: concentration showing 50% of IA. As to the method:
The cAMP measurement test used herein was carried out by using CISBIO HTRF (trademark) cAMP Hirange kit according to the manufacturer's instructions attached therewith.
CHO cells expressing human 5-HT4b receptor were incubated in Medium 1 [DMEM/1% NEAA, 1% penicillin/streptomycin (P/S), 0.2 mg/mL GENETICIN (G418), 10% FBS] at 37° C. under 5% CO2 condition. Then, the cells were put into Medium 2 (DMEM/10000 cut FBS, G-418, P/S, NEAA) for 1 to 2 hours, and collected by treating with trypsin containing EDTA. The collected cells were suspended in Assay Buffer 1 [100 mM Hanks/HEPES buffer (pH 7.4)], the suspended cells were mixed with the testing compound on 384-well plates, and the cells were incubated at 31° C. for 15 minutes. To the cells were added cAMP-cryptate solution and cAMP-d2 solution, and they were incubated at room temperature for 1 hour. Then, time-resolved fluorescence was measured by En Vision (excitation wavelength: 330 nm, fluorescence wavelength: 620/665 nm). An intrinsic activity of the compound [IA (%)] and a concentration showing 50% of IA [EC50 (nM)] were calculated from the obtained results. In particular, the intrinsic activity (IA) was calculated on the basis of the maximal activity of 5-HT (measured from 10^−11 M to 10^−7 M) defined as 100%.
(§1) In the following table, the compounds used in the test are shown in numbers which correspond to the Example numbers above where the preparations of the compounds are described.
(In general: TR-FRET usually uses a lanthanide donor and a delayed reading to cut background.)

Another experiment concerns the target T2, 5-HT4 receptor (Cavia porcellus, UniProt O70528).
T2 construct: striatum was isolated which was cryopreserved at −80° C. until use; from tissue; host or cells: guinea pig (Slc-Hartley) striatum membranes
Briefly: Test Example 1: Serotonin 4 (5-HT4) receptor binding assay, [3H]-GR113808, guinea pig striatum membranes (Table 96). As to conditions: Guinea pig 5-HT4 receptor binding assay, [3H]-GR113808, striatum membranes; mean value of each group. Here is the method:
The 5-HT4 receptor binding assay and preparations of receptor membrane preparations herein were carried out according to a method of Grossman et al. [see, British J. Pharmacol., (1993) 109, 618].
Slc-Hartley guinea pigs (body weight 300 g to 400 g) were decapitated to remove brain rapidly, and striatum was isolated which was cryopreserved at −80° C. until use. To the obtained tissues were added fifteen fold of Hepes buffer (50 mM, pH 7.4, 4° C.), and the mixture was homogenized by Teflon (trademark) homogenizer and centrifuged at 48,000×g (4° C.) for 15 minutes. To the resulting precipitate was added Hepes buffer (1 ml) to 30 mg by wet weight of tissues, and the mixture was suspended to give receptor membrane preparations.
To an assay tube were added 0.1 nM [^3H]-GR113808 {chemical name: [1-[2-(methylsulfonylamino)ethyl]-4-piperidinyl]methyl 1-methylindole-3-carboxylate}, receptor membrane preparations, and Hepes buffer (50 mM, pH 7.4, 4° C., 1 ml) containing test compounds or 30 μM serotonin; and the mixture was incubated at 37° C. for 30 minutes. On quenching the reaction, the mixture was rapidly filtered on whatman GF/B filter, which was presoaked in 0.1% polyethyleneimine for 1 hour, by using Brandel cell Harvester, and washed with ice-cooled 50 mM Tris-HCl (pH 7.7, 4 ml) three times. To the filter after filtration was added a liquid scintillator (Ecoscint), and then a radioactivity was determined by a liquid scintillation counter.
50% Inhibition concentrations (IC50) were determined from inhibition rates of test compounds to specific bindings which were obtained by subtracting nonspecific bindings from total binding amounts of [^3H]-GR113808.
as §1

T1 sequence (Q13639 whole entry): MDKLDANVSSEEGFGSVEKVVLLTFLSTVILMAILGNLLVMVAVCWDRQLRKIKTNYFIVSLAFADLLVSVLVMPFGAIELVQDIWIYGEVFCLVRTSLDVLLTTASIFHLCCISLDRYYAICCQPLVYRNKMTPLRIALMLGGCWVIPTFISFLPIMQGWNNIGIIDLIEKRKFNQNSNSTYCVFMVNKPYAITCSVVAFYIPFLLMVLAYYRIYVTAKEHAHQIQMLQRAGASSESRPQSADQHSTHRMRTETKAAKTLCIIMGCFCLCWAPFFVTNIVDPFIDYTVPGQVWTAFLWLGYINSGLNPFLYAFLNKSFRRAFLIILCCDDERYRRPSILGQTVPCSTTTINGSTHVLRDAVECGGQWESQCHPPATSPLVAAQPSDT
T2 sequence (O70528 whole entry): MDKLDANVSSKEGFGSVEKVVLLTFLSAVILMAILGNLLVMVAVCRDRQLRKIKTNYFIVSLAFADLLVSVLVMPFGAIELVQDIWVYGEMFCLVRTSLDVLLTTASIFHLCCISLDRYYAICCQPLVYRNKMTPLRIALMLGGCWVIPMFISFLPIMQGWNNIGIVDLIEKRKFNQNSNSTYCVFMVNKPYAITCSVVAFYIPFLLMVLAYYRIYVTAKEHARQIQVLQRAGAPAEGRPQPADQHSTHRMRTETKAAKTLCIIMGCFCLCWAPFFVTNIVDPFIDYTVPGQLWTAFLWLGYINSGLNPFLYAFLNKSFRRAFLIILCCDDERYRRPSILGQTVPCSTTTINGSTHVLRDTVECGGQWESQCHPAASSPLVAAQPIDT

As for `CCc1nn(-c2noc(C3CCN(CCC4CCCO4)CC3)n2)c2cc(F)ccc12` (stereo not drawn) [Example 131, 3-ethyl-6-fluoro-1-(5-{1-[2-(tetrahydrofuran-2-yl)ethyl]piperidin-4-yl}-1,2,4-oxadiazol-3-yl)-1H-indazole], on human 5-HT4b receptor, the Emax amounted to 77% and the EC50 worked out at 9.3 nM. The molecule also had a concentration for half-maximal inhibition (IC50) on 5-HT4 receptor below 20 nM.

Turning to `CCc1nn(-c2noc(C3CCN(CC4CCCO4)CC3)n2)c2ccccc12` (stereo not drawn) [Example 132, 3-ethyl-1-{5-[1-(tetrahydrofuran-2-ylmethyl)piperidin-4-yl]-1,2,4-oxadiazol-3-yl}-1H-indazole], at human 5-HT4b receptor, the Emax was determined as 29% and the EC50 was 14.7 nM. At 5-HT4 receptor, this molecule yielded an IC50 below 20 nM.

For `CCc1nn(-c2noc(C3CCN(CC4CCOCC4)CC3)n2)c2cc(F)ccc12` [Example 134, 3-ethyl-6-fluoro-1-{5-[1-(tetrahydro-2H-pyran-4-ylmethyl)piperidin-4-yl]-1,2,4-oxadiazol-3-yl}-1H-indazole], on human 5-HT4b receptor, the Emax was found to be 81% and a half-maximal effect (EC50) was put at 12.1 nM. At 5-HT4 receptor, the IC50 was determined as 24.2 nM.

On to `CCc1nn(-c2noc(C3CCN(C4CCOC4)CC3)n2)c2cc(F)ccc12` (stereo not drawn) [Example 138, 3-ethyl-6-fluoro-1-{5-[1-(tetrahydrofuran-3-yl)piperidin-4-yl]-1,2,4-oxadiazol-3-yl}-1H-indazole], for which, on human 5-HT4b receptor, the Emax was determined as 67% and a half-maximal response (EC50) required 22.4 nM. This molecule had an IC50 at 5-HT4 receptor below 20 nM.

Regarding `CCc1nn(-c2noc(C3CCN(C(C)C)CC3)n2)c2cc(F)ccc12` [Example 143, 3-ethyl-6-fluoro-1-{5-[1-(propan-2-yl)piperidin-4-yl]-1,2,4-oxadiazol-3-yl}-1H-indazole], at human 5-HT4b receptor, the Emax is 81% and the EC50 worked out at 6 nM. The IC50 at 5-HT4 receptor is below 20 nM.

For `CCc1nn(-c2noc(C3CCN(CC4CCN(C(=O)OC)CC4)CC3)n2)c2cc(F)ccc12` [Example 171, methyl 4-({4-[3-(3-ethyl-6-fluoro-1H-indazol-1-yl)-1,2,4-oxadiazol-5-yl]piperidin-1-yl}methyl)piperidine-1-carboxylate], at human 5-HT4b receptor, the Emax is 51% and the response was half-maximal at 30.8 nM (EC50). This molecule also displayed an IC50 on 5-HT4 receptor of 31.9 nM.

`CCc1nn(-c2noc(C3CCN(C[C@@H]4CCCN4C(=O)OC)CC3)n2)c2ccccc12` [Example 178, methyl (2S)-2-({4-[3-(3-ethyl-1H-indazol-1-yl)-1,2,4-oxadiazol-5-yl]piperidin-1-yl}methyl)pyrrolidine-1-carboxylate]: at human 5-HT4b receptor, the Emax was 38% and the EC50 is 10.9 nM. On 5-HT4 receptor, this molecule gave an IC50 below 20 nM.

In the case of `CCc1nn(-c2noc(C3CCN(C[C@@H]4CCCN4C(=O)OCCF)CC3)n2)c2c(F)cccc12` [Example 182, 2-fluoroethyl (2S)-2-({4-[3-(3-ethyl-7-fluoro-1H-indazol-1-yl)-1,2,4-oxadiazol-5-yl]piperidin-1-yl}methyl)pyrrolidine-1-carboxylate], on human 5-HT4b receptor, the Emax stood at 38% and it took 4 nM to reach a half-maximal effect (EC50). The molecule further yielded an IC50 on 5-HT4 receptor below 20 nM.

For `CCc1nn(-c2noc(C3CCN(C[C@@H]4CCN(C(=O)OCCF)C4)CC3)n2)c2ccccc12` [Example 195, 2-fluoroethyl (3S)-3-({4-[3-(3-ethyl-1H-indazol-1-yl)-1,2,4-oxadiazol-5-yl]piperidin-1-yl}methyl)pyrrolidine-1-carboxylate], on human 5-HT4b receptor, the Emax is 49% and the 50% effective concentration (EC50) is 31.4 nM. The same molecule had a half-maximal inhibitory concentration (IC50) at 5-HT4 receptor below 20 nM.

As to `CCc1nn(-c2noc(C3CCN(C4CCN(C(C)=O)CC4)CC3)n2)c2cc(F)ccc12` [Example 228, 1-{4-[3-(3-ethyl-6-fluoro-1H-indazol-1-yl)-1,2,4-oxadiazol-5-yl]-1,4′-bipiperidin-1′-yl}ethanone hydrochloride], at human 5-HT4b receptor, the Emax came to 66% and the EC50 was 8.2 nM. Besides, the IC50 at 5-HT4 receptor worked out at 28.7 nM.

Consider `CCc1nn(-c2noc(C3CCN(C4CCN(C(C)=O)CC4)CC3)n2)c2c(F)cccc12` [Example 229, 1-{4-[3-(3-ethyl-7-fluoro-1H-indazol-1-yl)-1,2,4-oxadiazol-5-yl]-1,4′-bipiperidin-1′-yl}ethanone hydrochloride], for which, on human 5-HT4b receptor, the Emax came to 55% and the response was half-maximal at 2.9 nM (EC50). For the same molecule, the IC50 at 5-HT4 receptor was below 20 nM.

As to `CCc1nn(-c2noc(C3CCN(C4CCN(C(=O)OC)CC4)CC3)n2)c2cc(F)ccc12` [Example 230, methyl 4-[3-(3-ethyl-6-fluoro-1H-indazol-1-yl)-1,2,4-oxadiazol-5-yl]-1,4′-bipiperidine-1′-carboxylate], at human 5-HT4b receptor, the Emax came to 65% and the EC50 is 17.9 nM. Further, the IC50 on 5-HT4 receptor was found to be 25.1 nM.

For the molecule `CCc1nn(-c2noc(C3CN(C4CCN(C(=O)OC)CC4)C3)n2)c2ccccc12` [Example 257, methyl 4-{3-[3-(3-ethyl-1H-indazol-1-yl)-1,2,4-oxadiazol-5-yl]azetidin-1-yl}piperidine-1-carboxylate], on human 5-HT4b receptor, the Emax is 48% and the EC50 came to 60.7 nM. At 5-HT4 receptor, the IC50 was below 20 nM.

For `CCc1nn(-c2noc(C3CCN(CCCO)CC3)n2)c2ccccc12` [Example 261, 3-{4-[3-(3-ethyl-1H-indazol-1-yl)-1,2,4-oxadiazol-5-yl]piperidin-1-yl}propan-1-ol], at human 5-HT4b receptor, the Emax amounted to 84% and the response was half-maximal at 6.2 nM (EC50). For the same molecule, the IC50 on 5-HT4 receptor is below 20 nM.

Usually EC50 stands for the concentration giving half of the maximal effect. Read a high EC50 as lower potency in that assay. What is called IC50 is the point on the concentration scale where inhibition reaches its midpoint. Lower therefore signals inhibition by little substance.
